Measured values from ChEMBL document CHEMBL4340560, “Design and synthesis of novel 1-phenyl-3-(5-(pyrimidin-4-ylthio)-1,3,4-thiadiazol- 2-yl)urea derivatives with potent anti-CML activity throughout PI3K/AKT signaling pathway” (Bioorg Med Chem Lett, 2019).
Calls of active or inactive are those of the source. The calls are words filed in the database; no cut-off is given here.

Tests used:
K562 [1] = test: Antiproliferative activity against human K562 cells assessed as inhibition of cell viability incubated for 72 hrs by real time live-cell imaging technique; format: functional, cell-based; conditions: K562, 72 h
[2] = target: Serine/threonine-protein kinase AKT (Homo sapiens) (UniProt P31751+Q9Y243+P31749); test: Inhibition of AKT1/2/3 phosphorylation (S473/T308 residues) in human K562 cells up to 10 uM incubated for 48 hrs by human phospho-kinase array; format: cell-based
K562 [3] = test: Inhibition of PI3K/Akt signaling in human K562 cells assessed as reduction in GSK3alpha/beta phosphorylation at S21/S9 residues up to 10 uM incubated for 48 hrs by human phospho-kinase array; format: cell-based
K562 [4] = test: Inhibition of RAF/MEK/ERK signalling n human K562 cells assessed as reduction in ERK1/2 phosphorylation at T202/Y204, T185/Y187 residues up to 10 uM incubated for 48 hrs by human phospho-kinase array; format: cell-based
[5] = target: Protein-tyrosine kinase 2-beta (Homo sapiens) (UniProt Q14289); test: Inhibition of PYK2 phosphorylation in human K562 cells up to 10 uM incubated for 48 hrs by human phospho-kinase array; format: cell-based
Sequence of Protein-tyrosine kinase 2-beta (Homo sapiens) (Q14289 whole entry, looked up): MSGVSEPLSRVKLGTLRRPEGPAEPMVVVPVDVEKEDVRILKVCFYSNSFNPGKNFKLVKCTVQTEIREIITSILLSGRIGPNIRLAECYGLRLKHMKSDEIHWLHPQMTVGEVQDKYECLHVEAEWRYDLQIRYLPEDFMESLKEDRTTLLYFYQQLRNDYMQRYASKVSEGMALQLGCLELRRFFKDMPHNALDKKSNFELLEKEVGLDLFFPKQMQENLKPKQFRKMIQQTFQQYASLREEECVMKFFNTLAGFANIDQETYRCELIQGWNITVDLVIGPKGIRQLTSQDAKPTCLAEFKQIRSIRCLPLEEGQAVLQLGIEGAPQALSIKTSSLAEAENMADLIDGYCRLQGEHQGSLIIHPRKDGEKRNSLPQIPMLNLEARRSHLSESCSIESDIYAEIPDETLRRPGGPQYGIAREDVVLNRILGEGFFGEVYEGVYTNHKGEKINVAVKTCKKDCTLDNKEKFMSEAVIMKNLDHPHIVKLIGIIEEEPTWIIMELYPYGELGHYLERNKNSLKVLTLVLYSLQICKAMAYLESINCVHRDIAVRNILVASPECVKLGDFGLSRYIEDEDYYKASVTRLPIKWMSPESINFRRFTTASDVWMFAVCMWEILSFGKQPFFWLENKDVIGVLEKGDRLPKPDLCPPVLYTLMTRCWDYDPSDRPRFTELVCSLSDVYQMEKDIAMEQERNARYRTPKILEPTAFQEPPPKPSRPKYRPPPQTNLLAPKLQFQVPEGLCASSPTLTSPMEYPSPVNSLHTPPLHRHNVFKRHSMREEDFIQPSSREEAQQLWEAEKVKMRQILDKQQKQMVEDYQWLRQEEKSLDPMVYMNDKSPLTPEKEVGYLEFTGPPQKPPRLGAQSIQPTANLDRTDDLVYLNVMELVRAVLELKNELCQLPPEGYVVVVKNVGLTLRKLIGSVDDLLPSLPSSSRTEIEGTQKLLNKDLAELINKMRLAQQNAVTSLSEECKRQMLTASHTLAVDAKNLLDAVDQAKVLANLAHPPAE

[6] = target: Cyclin-dependent kinase inhibitor 1B (Homo sapiens) (UniProt P46527); test: Induction of p27 phosphorylation at T198 residues in human K562 cells up to 10 uM incubated for 48 hrs by human phospho-kinase array; format: cell-based
Sequence of Cyclin-dependent kinase inhibitor 1B (Homo sapiens) (P46527 whole entry): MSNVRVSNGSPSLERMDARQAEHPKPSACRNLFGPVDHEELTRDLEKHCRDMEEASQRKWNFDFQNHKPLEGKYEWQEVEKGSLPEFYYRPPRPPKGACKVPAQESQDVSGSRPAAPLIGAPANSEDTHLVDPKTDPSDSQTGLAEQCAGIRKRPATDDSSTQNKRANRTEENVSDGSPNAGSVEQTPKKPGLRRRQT

[7] = target: Tyrosine-protein kinase Lck (Homo sapiens) (UniProt P06239); test: Inhibition of LCK phosphorylation in human K562 cells up to 10 uM incubated for 48 hrs by human phospho-kinase array; format: cell-based
Sequence of Tyrosine-protein kinase Lck (Homo sapiens) (P06239 2-509 limits assumed): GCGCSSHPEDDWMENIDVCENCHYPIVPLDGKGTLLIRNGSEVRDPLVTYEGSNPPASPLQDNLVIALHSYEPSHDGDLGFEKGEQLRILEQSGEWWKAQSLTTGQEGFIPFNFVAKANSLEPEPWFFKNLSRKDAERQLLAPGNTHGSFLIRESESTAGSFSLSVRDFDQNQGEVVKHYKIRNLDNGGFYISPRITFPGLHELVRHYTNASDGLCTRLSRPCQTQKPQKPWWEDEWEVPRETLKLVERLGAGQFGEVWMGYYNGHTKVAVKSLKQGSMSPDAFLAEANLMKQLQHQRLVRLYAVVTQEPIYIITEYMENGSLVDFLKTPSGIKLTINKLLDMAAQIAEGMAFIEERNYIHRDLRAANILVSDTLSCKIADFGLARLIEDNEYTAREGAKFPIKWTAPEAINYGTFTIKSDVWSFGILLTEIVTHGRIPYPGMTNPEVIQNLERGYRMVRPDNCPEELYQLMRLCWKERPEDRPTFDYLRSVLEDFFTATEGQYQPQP

[8] = target: Proto-oncogene tyrosine-protein kinase Src (Homo sapiens) (UniProt P12931); test: Inhibition of SRC phosphorylation in human K562 cells up to 10 uM incubated for 48 hrs by human phospho-kinase array; format: cell-based
Sequence of Proto-oncogene tyrosine-protein kinase Src (Homo sapiens) (P12931 2-536 limits assumed): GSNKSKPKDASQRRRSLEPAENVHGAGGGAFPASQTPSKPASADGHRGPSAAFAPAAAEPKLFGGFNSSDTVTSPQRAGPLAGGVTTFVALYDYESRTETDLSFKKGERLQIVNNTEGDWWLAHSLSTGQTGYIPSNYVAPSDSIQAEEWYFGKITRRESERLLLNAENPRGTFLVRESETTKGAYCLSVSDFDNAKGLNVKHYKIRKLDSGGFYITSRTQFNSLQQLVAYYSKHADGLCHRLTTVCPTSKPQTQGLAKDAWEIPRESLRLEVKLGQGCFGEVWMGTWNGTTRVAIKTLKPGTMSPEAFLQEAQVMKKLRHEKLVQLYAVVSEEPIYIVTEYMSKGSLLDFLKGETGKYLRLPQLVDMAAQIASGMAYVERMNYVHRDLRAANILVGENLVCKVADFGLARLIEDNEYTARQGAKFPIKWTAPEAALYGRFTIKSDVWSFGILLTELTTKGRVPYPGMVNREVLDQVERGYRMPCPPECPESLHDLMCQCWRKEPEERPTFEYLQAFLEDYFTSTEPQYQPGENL

K562 [9] = test: Inhibition of RAF/MEK/ERK signalling n human K562 cells assessed as reduction in RSK1/2/3 phosphorylation at S380/S386/S377 residues up to 10 uM incubated for 48 hrs by human phospho-kinase array; format: cell-based
[10] = target: Cellular tumor antigen p53 (Homo sapiens) (UniProt P04637); test: Induction of p53 phosphorylation at S392, S46, S15 residues in human K562 cells up to 10 uM incubated for 48 hrs by human phospho-kinase array; format: cell-based
Sequence of Cellular tumor antigen p53 (Homo sapiens) (P04637 whole entry, looked up): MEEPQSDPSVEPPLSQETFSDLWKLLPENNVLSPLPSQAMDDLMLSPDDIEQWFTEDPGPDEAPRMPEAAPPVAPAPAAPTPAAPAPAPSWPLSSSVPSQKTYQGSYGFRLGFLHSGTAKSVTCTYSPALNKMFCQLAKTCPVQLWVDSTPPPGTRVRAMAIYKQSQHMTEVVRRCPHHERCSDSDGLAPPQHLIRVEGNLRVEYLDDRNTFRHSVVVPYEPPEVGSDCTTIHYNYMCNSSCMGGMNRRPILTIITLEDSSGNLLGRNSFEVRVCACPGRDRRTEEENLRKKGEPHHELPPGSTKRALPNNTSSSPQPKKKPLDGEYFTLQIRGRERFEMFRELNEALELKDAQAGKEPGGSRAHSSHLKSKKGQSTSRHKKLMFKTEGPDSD

[11] = target: Serine/threonine-protein kinase WNK1 (Homo sapiens) (UniProt Q9H4A3); test: Inhibition of WNK1 phosphorylation at T60 residue in human K562 cells up to 10 uM incubated for 48 hrs by human phospho-kinase array; format: cell-based
Sequence of Serine/threonine-protein kinase WNK1 (Homo sapiens) (Q9H4A3 whole entry, looked up): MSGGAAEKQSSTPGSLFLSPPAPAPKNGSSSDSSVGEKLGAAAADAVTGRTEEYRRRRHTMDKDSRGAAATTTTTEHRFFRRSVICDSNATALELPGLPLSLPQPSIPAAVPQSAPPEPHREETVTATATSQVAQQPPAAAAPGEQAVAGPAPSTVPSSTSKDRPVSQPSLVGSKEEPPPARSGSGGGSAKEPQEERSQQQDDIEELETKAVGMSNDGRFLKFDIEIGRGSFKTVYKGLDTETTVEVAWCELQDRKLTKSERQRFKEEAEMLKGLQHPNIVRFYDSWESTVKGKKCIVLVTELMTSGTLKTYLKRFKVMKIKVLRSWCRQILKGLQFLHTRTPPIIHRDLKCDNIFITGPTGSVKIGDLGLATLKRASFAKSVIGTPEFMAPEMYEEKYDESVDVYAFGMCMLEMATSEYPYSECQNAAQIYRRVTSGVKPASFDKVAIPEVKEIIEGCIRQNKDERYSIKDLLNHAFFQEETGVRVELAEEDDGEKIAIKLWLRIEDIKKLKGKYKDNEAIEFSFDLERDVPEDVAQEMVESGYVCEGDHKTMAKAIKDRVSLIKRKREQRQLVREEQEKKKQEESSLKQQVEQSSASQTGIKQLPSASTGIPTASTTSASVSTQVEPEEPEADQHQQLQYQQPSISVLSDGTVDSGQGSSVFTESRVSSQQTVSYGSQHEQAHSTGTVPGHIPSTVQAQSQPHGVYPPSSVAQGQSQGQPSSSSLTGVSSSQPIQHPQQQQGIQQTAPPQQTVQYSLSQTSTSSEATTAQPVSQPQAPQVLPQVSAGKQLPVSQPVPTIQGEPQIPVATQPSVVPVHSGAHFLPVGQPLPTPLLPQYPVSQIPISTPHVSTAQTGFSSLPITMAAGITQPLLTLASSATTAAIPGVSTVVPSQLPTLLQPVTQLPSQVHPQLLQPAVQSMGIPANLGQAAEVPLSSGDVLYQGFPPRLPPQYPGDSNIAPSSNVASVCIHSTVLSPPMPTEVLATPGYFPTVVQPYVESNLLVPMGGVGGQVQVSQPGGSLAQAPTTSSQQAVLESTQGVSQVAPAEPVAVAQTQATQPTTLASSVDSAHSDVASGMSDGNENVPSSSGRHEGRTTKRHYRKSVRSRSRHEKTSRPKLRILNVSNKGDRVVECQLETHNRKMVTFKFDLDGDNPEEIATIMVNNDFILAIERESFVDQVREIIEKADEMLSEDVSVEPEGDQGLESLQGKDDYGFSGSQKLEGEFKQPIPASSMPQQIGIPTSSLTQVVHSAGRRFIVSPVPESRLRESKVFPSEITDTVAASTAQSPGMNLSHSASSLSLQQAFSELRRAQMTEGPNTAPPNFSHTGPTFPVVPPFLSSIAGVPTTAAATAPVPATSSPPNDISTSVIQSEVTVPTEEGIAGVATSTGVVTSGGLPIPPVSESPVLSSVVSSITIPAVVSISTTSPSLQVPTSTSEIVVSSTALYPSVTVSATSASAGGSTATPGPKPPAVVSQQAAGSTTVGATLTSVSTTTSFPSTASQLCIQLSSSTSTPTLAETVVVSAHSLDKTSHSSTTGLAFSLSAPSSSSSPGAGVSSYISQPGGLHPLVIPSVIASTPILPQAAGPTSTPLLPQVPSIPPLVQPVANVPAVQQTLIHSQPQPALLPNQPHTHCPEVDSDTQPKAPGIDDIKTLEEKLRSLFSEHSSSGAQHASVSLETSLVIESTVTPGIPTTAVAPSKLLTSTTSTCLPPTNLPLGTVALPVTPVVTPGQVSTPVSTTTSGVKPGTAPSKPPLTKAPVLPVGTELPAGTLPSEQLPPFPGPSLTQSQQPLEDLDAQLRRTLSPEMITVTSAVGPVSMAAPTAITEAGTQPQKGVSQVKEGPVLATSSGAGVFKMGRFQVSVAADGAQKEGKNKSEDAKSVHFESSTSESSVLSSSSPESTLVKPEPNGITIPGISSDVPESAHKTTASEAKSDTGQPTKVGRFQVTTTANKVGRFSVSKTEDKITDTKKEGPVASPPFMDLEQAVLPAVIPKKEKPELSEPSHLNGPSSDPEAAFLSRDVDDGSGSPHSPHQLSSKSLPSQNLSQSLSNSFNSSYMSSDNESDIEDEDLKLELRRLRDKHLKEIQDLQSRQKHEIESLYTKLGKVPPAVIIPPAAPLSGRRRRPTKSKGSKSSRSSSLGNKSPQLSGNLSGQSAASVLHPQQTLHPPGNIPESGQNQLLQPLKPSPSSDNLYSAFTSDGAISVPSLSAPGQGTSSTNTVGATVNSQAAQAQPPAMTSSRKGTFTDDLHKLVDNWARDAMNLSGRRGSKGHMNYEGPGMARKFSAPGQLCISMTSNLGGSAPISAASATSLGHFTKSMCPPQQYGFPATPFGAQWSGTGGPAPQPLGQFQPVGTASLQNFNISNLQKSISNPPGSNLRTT

K562 [12] = test: Inhibition of MAPK signalling in human K562 cells assessed as effect on p38 phosphorylation up to 10 uM incubated for 48 hrs by human phospho-kinase array; format: cell-based
K562 [13] = test: Inhibition of PI3K/Akt signaling in human K562 cells assessed as reduction in p70S6K phosphorylation at T421/S424 residues up to 10 uM incubated for 48 hrs by human phospho-kinase array; format: cell-based
K562 [14] = test: Induction of apoptosis in human K562 cells assessed as increase in apoptotic cells at 10 uM incubated for 24 to 48 hrs by Caspase-3/7 reagent-based fluorescence assay; format: functional, cell-based
[15] = target: Proline-rich AKT1 substrate 1 (Homo sapiens) (UniProt Q96B36); test: Inhibition of PRAS40 phosphorylation at T246 residue in human K562 cells up to 10 uM incubated for 48 hrs by human phospho-kinase array; format: cell-based
K562 [16] = test: Inhibition of MAPK signalling in human K562 cells assessed as effect on JNK phosphorylation up to 10 uM incubated for 48 hrs by human phospho-kinase array; format: cell-based
K562 [17] = test: Inhibition of MAPK signalling in human K562 cells assessed as effect on HSP27 phosphorylation up to 10 uM incubated for 48 hrs by human phospho-kinase array; format: cell-based
K562 [18] = test: Inhibition of STAT signalling in human K562 cells up to 10 uM incubated for 48 hrs by human phospho-kinase array; format: cell-based
K562 [19] = test: Inhibition of PI3K/Akt signaling in human K562 cells assessed as reduction in mTOR phosphorylation at S2448 residues up to 10 uM incubated for 48 hrs by human phospho-kinase array; format: cell-based
K562 [20] = test: Induction of apoptosis in human K562 cells assessed as increase in apoptotic cells at 10 uM incubated for 48 hrs by Caspase-3/7 reagent-based fluorescence assay; format: functional, cell-based

Compound: COc1cccc(NC(=O)Nc2nnc(Sc3cc(NCCCN4CCOCC4)ncn3)s2)c1
- IC50 (K562 [1]): 690 nM

Compound: O=C(Nc1ccc(Cl)cc1)Nc1nnc(Sc2cc(NCCCN3CCOCC3)ncn2)s1
- IC50 (K562 [1]): 110 nM

Compound: O=C(Nc1ccc(C(F)(F)F)cc1)Nc1nnc(Sc2cc(NCCCN3CCOCC3)ncn2)s1
- inhibition [2]: Active
- inhibition (K562 [3]): Active
- inhibition (K562 [4]): Active
- inhibition [5]: Active
- Activity [6]: Active
- inhibition [7]: Active
- inhibition [8]: Active
- inhibition (K562 [9]): Active
- Activity [10]: Active
- inhibition [11]: Active
- inhibition (K562 [12]): Active
- inhibition (K562 [13]): Active
- Activity (K562 [14]): Active
- inhibition [15]: Active
- inhibition (K562 [16]): Active
- IC50 (K562 [1]): 38 nM
- inhibition (K562 [17]): Active
- inhibition (K562 [18]): Active
- inhibition (K562 [19]): Active

Compound: CCN(CC)CCCNc1cc(Sc2nnc(NC(=O)Nc3ccc(Cl)c(C(F)(F)F)c3)s2)ncn1
- IC50 (K562 [1]): 280 nM

Compound: Cc1ccc(NC(=O)Nc2nnc(Sc3cc(NCCCN4CCOCC4)ncn3)s2)cc1
- IC50 (K562 [1]): 56 nM

Compound: Cc1ccc(NC(=O)c2ccc(CN3CCN(C)CC3)cc2)cc1Nc1nccc(-c2cccnc2)n1 [IMATINIB]
- IC50 (K562 [1]): 140 nM
- Activity (K562 [20]): Active

Compound: O=C(Nc1ccc(Cl)c(C(F)(F)F)c1)Nc1nnc(Sc2cc(NCCCN3CCOCC3)ncn2)s1
- IC50 (K562 [1]): 120 nM

Compound: Cc1ccc(NC(=O)Nc2nnc(Sc3cc(NCCCN4CCOCC4)ncn3)s2)cc1Cl
- IC50 (K562 [1]): 35 nM

Compound: Cc1ccc(NC(=O)Nc2nnc(Sc3cc(OCCCN4CCOCC4)ncn3)s2)cc1
- IC50 (K562 [1]): 78 nM

Compound: O=C(Nc1ccc(Cl)c(C(F)(F)F)c1)Nc1nnc(Sc2cc(OCCCN3CCOCC3)ncn2)s1
- IC50 (K562 [1]): 150 nM

Compound: CCN(CC)CCCNc1cc(Sc2nnc(NC(=O)Nc3ccc(C)cc3)s2)ncn1
- IC50 (K562 [1]): 14 nM
